PMC5218480 (PLoS ONE, 2017)

System: MV-4-11 cells
Assay: Gene expression microarray analysis (Affymetrix PrimeView) and GSEA
Assay type: cell-based, human
Design: RFU PODN (11730768_x_at) / Fold change /veh PODN (11730768_x_at) / RFU LINC00158 (11744669_a_at) / Fold change /veh LINC00158 (11744669_a_at) / RFU DUSP10 (11751237_a_at) / Fold change /veh DUSP10 (11751237_a_at) / RFU ID3 (11757404_x_at) / Fold change /veh ID3 (11757404_x_at) / RFU PLEKHG5 (11737974_s_at) / Fold change /veh PLEKHG5 (11737974_s_at) / RFU LRRC4B (11730491_at) / Fold change /veh LRRC4B (11730491_at) / RFU GIMAP4 (11747438_a_at) / Fold change /veh GIMAP4 (11747438_a_at) / RFU KRT8 (11758183_x_at) / Fold change /veh KRT8 (11758183_x_at) / RFU CNN1 (11734310_a_at) / Fold change /veh CNN1 (11734310_a_at) / RFU VPS37D (11726825_at) / Fold change /veh VPS37D (11726825_at) / RFU C10orf10 (11716522_x_at) / Fold change /veh C10orf10 (11716522_x_at) / RFU KIR2DL2 /// KIR2DL4 /// KIR2DL5A /// KIR2DL5B /// KIR2DS1 /// KIR2DS2 /// KIR2DS3 /// KIR2DS4 /// KIR3DL3 /// KIR3DL3 /// KIR3DS1 (11738374_at) / Fold change /veh KIR2DL2 /// KIR2DL4 /// KIR2DL5A /// KIR2DL5B /// KIR2DS1 /// KIR2DS2 /// KIR2DS3 /// KIR2DS4 /// KIR3DL3 /// KIR3DL3 /// KIR3DS1 (11738374_at) / RFU C1QL1 (11718748_at) / Fold change /veh C1QL1 (11718748_at) / RFU TMPRSS4 (11747572_a_at) / Fold change /veh TMPRSS4 (11747572_a_at) / RFU HAMP (11756126_x_at) / Fold change /veh HAMP (11756126_x_at) / RFU RNFT2 (11725882_a_at) / Fold change /veh RNFT2 (11725882_a_at) / RFU NR4A2 (11747474_a_at) / Fold change /veh NR4A2 (11747474_a_at) / RFU ABCC12 (11746883_a_at) / Fold change /veh ABCC12 (11746883_a_at) / RFU TMEM136 (11760407_x_at) / Fold change /veh TMEM136 (11760407_x_at) / RFU CLDN22 /// WWC2 (11732394_at) / Fold change /veh CLDN22 /// WWC2 (11732394_at) / RFU HLA-DPB1 (11760878_x_at) / Fold change /veh HLA-DPB1 (11760878_x_at) / RFU SPINT1 (11716480_a_at) / Fold change /veh SPINT1 (11716480_a_at) / RFU GAP43 (11754022_s_at) / Fold change /veh GAP43 (11754022_s_at) / RFU A4GNT (11735810_at) / Fold change /veh A4GNT (11735810_at) / RFU PRB3 (11715151_x_at) / Fold change /veh PRB3 (11715151_x_at) / RFU TUBB4B (11761932_at) / Fold change /veh TUBB4B (11761932_at) / RFU CAPN14 (11732068_a_at) / Fold change /veh CAPN14 (11732068_a_at) / RFU TMCC2 (11721928_a_at) / Fold change /veh TMCC2 (11721928_a_at) / RFU IRGQ (11745062_a_at) / Fold change /veh IRGQ (11745062_a_at) / RFU FAM174B (11720279_a_at) / Fold change /veh FAM174B (11720279_a_at) / RFU TMPRSS4 (11748680_a_at) / Fold change /veh TMPRSS4 (11748680_a_at) / RFU FAM212B (11763350_a_at) / Fold change /veh FAM212B (11763350_a_at) / RFU PLEKHG5 (11743358_a_at) / Fold change /veh PLEKHG5 (11743358_a_at) / RFU ZSCAN30 (11745921_a_at) / Fold change /veh ZSCAN30 (11745921_a_at) / RFU CMKLR1 (11741424_a_at) / Fold change /veh CMKLR1 (11741424_a_at) / RFU LOC101060620 /// MAPK8IP1 (11723275_at) / Fold change /veh LOC101060620 /// MAPK8IP1 (11723275_at) / RFU SPTSSB (11747773_x_at) / Fold change /veh SPTSSB (11747773_x_at) / RFU PRSS12 (11739890_at) / Fold change /veh PRSS12 (11739890_at) / RFU BIN1 (11741810_x_at) / Fold change /veh BIN1 (11741810_x_at) / RFU WNT11 (11732464_a_at) / Fold change /veh WNT11 (11732464_a_at) / RFU C10orf10 (11716521_a_at) / Fold change /veh C10orf10 (11716521_a_at) / RFU C5orf56 (11738089_at) / Fold change /veh C5orf56 (11738089_at) / RFU CYB561 (11721691_x_at) / Fold change /veh CYB561 (11721691_x_at) / RFU ANKRD19P (11752326_a_at) / Fold change /veh ANKRD19P (11752326_a_at) / RFU OR2T12 /// OR2T33 /// OR2T8 (11738714_s_at) / Fold change /veh OR2T12 /// OR2T33 /// OR2T8 (11738714_s_at) / RFU VCAN (11748164_a_at) / Fold change /veh VCAN (11748164_a_at) / RFU JSRP1 (11732532_at) / Fold change /veh JSRP1 (11732532_at) / RFU KRTAP10-11 (11738290_x_at) / Fold change /veh KRTAP10-11 (11738290_x_at) / RFU MYO3A (11730013_a_at) / Fold change /veh MYO3A (11730013_a_at) / RFU EBF3 (11725865_a_at) / Fold change /veh EBF3 (11725865_a_at) / RFU CAMK2N1 (11719241_x_at) / Fold change /veh CAMK2N1 (11719241_x_at) / RFU C5orf56 (11738088_a_at) / Fold change /veh C5orf56 (11738088_a_at) / RFU OLFML3 (11715873_a_at) / Fold change /veh OLFML3 (11715873_a_at) / RFU LOC100653217 /// NTM (11731650_a_at) / Fold change /veh LOC100653217 /// NTM (11731650_a_at) / RFU MAPK11 (11762145_a_at) / Fold change /veh MAPK11 (11762145_a_at) / RFU FIZ1 (11724087_x_at) / Fold change /veh FIZ1 (11724087_x_at) / RFU OASL (11726364_x_at) / Fold change /veh OASL (11726364_x_at) / RFU SOX15 (11748057_x_at) / Fold change /veh SOX15 (11748057_x_at) / RFU CD79A (11719716_a_at) / Fold change /veh CD79A (11719716_a_at) / RFU HIST1H1D (11736915_at) / Fold change /veh HIST1H1D (11736915_at) / RFU CASKIN2 (11723855_a_at) / Fold change /veh CASKIN2 (11723855_a_at) / RFU LOC730098 (11760151_x_at) / Fold change /veh LOC730098 (11760151_x_at) / RFU OR4N2 (11742367_at) / Fold change /veh OR4N2 (11742367_at) / RFU PRRT2 (11749266_a_at) / Fold change /veh PRRT2 (11749266_a_at) / RFU SNX32 (11753110_a_at) / Fold change /veh SNX32 (11753110_a_at) / RFU CDHR5 (11726645_a_at) / Fold change /veh CDHR5 (11726645_a_at) / RFU RCAN1 (11760418_a_at) / Fold change /veh RCAN1 (11760418_a_at) / RFU FAM167A (11723789_a_at) / Fold change /veh FAM167A (11723789_a_at) / RFU FAM26E (11764081_at) / Fold change /veh FAM26E (11764081_at) / RFU ISYNA1 (11749810_s_at) / Fold change /veh ISYNA1 (11749810_s_at) / RFU ACY1 (11761880_at) / Fold change /veh ACY1 (11761880_at) / RFU 11764098_at / Fold change /veh 11764098_at / RFU SAMD14 (11745864_x_at) / Fold change /veh SAMD14 (11745864_x_at) / RFU NPB (11741838_a_at) / Fold change /veh NPB (11741838_a_at) / RFU TMPRSS6 (11731388_a_at) / Fold change /veh TMPRSS6 (11731388_a_at) / RFU KRTAP10-2 (11738614_at) / Fold change /veh KRTAP10-2 (11738614_at) / RFU ARHGAP8 /// PRR5-ARHGAP8 (11727945_x_at) / Fold change /veh ARHGAP8 /// PRR5-ARHGAP8 (11727945_x_at) / RFU KRTAP5-7 /// NADSYN1 (11734609_at) / Fold change /veh KRTAP5-7 /// NADSYN1 (11734609_at) / RFU RASL12 (11751679_a_at) / Fold change /veh RASL12 (11751679_a_at) / RFU CDKN2B (11736163_a_at) / Fold change /veh CDKN2B (11736163_a_at) / RFU PRF1 (11729649_at) / Fold change /veh PRF1 (11729649_at) / RFU, ZNF638 /// ZNF638-IT1 / Fold change vs veh, ZNF638 /// ZNF638-IT1 / RFU, PANK3 / Fold change vs veh, PANK3 / RFU, SH3YL1 / Fold change vs veh, SH3YL1 / RFU, ZEB2 / Fold change vs veh, ZEB2 / RFU, NRIP1 / Fold change vs veh, NRIP1 / RFU, PTTG1IP / Fold change vs veh, PTTG1IP / RFU, CAPN2 / Fold change vs veh, CAPN2 / RFU, MED14 / Fold change vs veh, MED14 / RFU, SNORA58 / Fold change vs veh, SNORA58 / RFU, C1orf63 / Fold change vs veh, C1orf63 / RFU, LRRFIP1 / Fold change vs veh, LRRFIP1 / RFU, NDUFAF7 / Fold change vs veh, NDUFAF7 / RFU, SLC12A2 / Fold change vs veh, SLC12A2 / RFU, IBTK / Fold change vs veh, IBTK / RFU, ESF1 / Fold change vs veh, ESF1 / Fold change vs veh, TMEM50B / RFU, TAOK1 / Fold change vs veh, TAOK1 / RFU, ACBD3 / Fold change vs veh, ACBD3 / RFU, TMA16 / Fold change vs veh, TMA16 / RFU, RWDD3 / Fold change vs veh, RWDD3 / RFU, BCAT1 / Fold change vs veh, BCAT1 / RFU, EDEM3 / Fold change vs veh, EDEM3 / RFU, TMEM33 / Fold change vs veh, TMEM33 / RFU, WDR75 / Fold change vs veh, WDR75 / RFU, AHCTF1 / Fold change vs veh, AHCTF1 / RFU, TFRC / Fold change vs veh, TFRC / RFU, ZDHHC17 / Fold change vs veh, ZDHHC17 / RFU, NOM1 / Fold change vs veh, NOM1 / RFU, ARL8B / Fold change vs veh, ARL8B / RFU, ZBTB11 / Fold change vs veh, ZBTB11 / RFU, TAMM41 / Fold change vs veh, TAMM41 / RFU, KIAA1704 /// LOC100996395 / Fold change vs veh, KIAA1704 /// LOC100996395 / RFU, ING1 / Fold change vs veh, ING1 / RFU, TRMT61B / Fold change vs veh, TRMT61B / RFU, FUBP3 / Fold change vs veh, FUBP3 / RFU, TP53 / Fold change vs veh, TP53 / RFU, TNKS2 / Fold change vs veh, TNKS2 / RFU, ZFP14 / Fold change vs veh, ZFP14 / RFU, ACTR2 / Fold change vs veh, ACTR2 / RFU, PPP3R1 / Fold change vs veh, PPP3R1 / RFU, PIK3R1 / Fold change vs veh, PIK3R1 / RFU, HNRNPA1 / Fold change vs veh, HNRNPA1 / RFU, RNF170 / Fold change vs veh, RNF170 / RFU, ZNF28 / Fold change vs veh, ZNF28 / RFU, RNGTT / Fold change vs veh, RNGTT / RFU, OGT / Fold change vs veh, OGT / RFU, BRD1 / Fold change vs veh, BRD1 / RFU, MARS / Fold change vs veh, MARS / RFU, ZNF655 / Fold change vs veh, ZNF655 / RFU, FAHD1 / Fold change vs veh, FAHD1 / RFU, BDP1 / Fold change vs veh, BDP1 / RFU, LRRCC1 / Fold change vs veh, LRRCC1 / RFU, ARID1A / Fold change vs veh, ARID1A / RFU, ZNF146 / Fold change vs veh, ZNF146 / RFU, ZNF330 / Fold change vs veh, ZNF330 / RFU, GPN3 / Fold change vs veh, GPN3 / RFU, C9orf123 / Fold change vs veh, C9orf123 / RFU, N4BP2L2 / Fold change vs veh, N4BP2L2 / RFU, ARFIP1 / Fold change vs veh, ARFIP1 / RFU, FAM179B / Fold change vs veh, FAM179B / RFU, BCL10 / Fold change vs veh, BCL10 / RFU, UHRF1BP1L / Fold change vs veh, UHRF1BP1L / RFU, BET1 / Fold change vs veh, BET1 / RFU, CNOT2 / Fold change vs veh, CNOT2 / RFU, ZNF268 / Fold change vs veh, ZNF268 / Fold change vs veh, ZNF507 / RFU, DGCR2 / Fold change vs veh, DGCR2 / RFU, WDSUB1 / Fold change vs veh, WDSUB1 / Fold change vs veh, HSP90B1 /// MIR3652 / RFU, ADSS / Fold change vs veh, ADSS / RFU, GK / Fold change vs veh, GK / RFU, ZNF148 / Fold change vs veh, ZNF148 / RFU, TAF9 / Fold change vs veh, TAF9 / RFU, SLC1A5 / Fold change vs veh, SLC1A5 / RFU, SLMO2 / Fold change vs veh, SLMO2 / RFU, ABCC4 / Fold change vs veh, ABCC4 / RFU, LOC101060439 /// RAP1B / Fold change vs veh, LOC101060439 /// RAP1B / RFU, RFX7 / Fold change vs veh, RFX7 / RFU, GTPBP10 / Fold change vs veh, GTPBP10 / RFU, CNEP1R1 / Fold change vs veh, CNEP1R1 / RFU, BIVM-ERCC5 /// ERCC5 / Fold change vs veh, BIVM-ERCC5 /// ERCC5 / RFU, ILF3 / Fold change vs veh, ILF3 / RFU 11762660_at / Fold change /veh 11762660_at / RFU VCAN (11757783_s_at) / Fold change /veh VCAN (11757783_s_at) / RFU DDX43 (11728927_at) / Fold change /veh DDX43 (11728927_at) / RFU KRT8 (11758188_x_at) / Fold change /veh KRT8 (11758188_x_at) / RFU NKD1 (11759106_at) / Fold change /veh NKD1 (11759106_at) / RFU SRD5A1 (11742802_a_at) / Fold change /veh SRD5A1 (11742802_a_at) / RFU TPSAB1 /// TPSB2 (11721975_s_at) / Fold change /veh TPSAB1 /// TPSB2 (11721975_s_at) / RFU GSTM3 (11746129_a_at) / Fold change /veh GSTM3 (11746129_a_at) / RFU IL23R (11737362_x_at) / Fold change /veh IL23R (11737362_x_at) / RFU TMEM51 (11727254_a_at) / Fold change /veh TMEM51 (11727254_a_at) / RFU PIWIL2 (11732686_x_at) / Fold change /veh PIWIL2 (11732686_x_at) / RFU ORM1 (11744905_x_at) / Fold change /veh ORM1 (11744905_x_at) / RFU CCDC152 (11743942_at) / Fold change /veh CCDC152 (11743942_at) / RFU ECM1 (11717891_a_at) / Fold change /veh ECM1 (11717891_a_at) / RFU IL23R (11748794_a_at) / Fold change /veh IL23R (11748794_a_at) / RFU TNFAIP8L3 (11732012_x_at) / Fold change /veh TNFAIP8L3 (11732012_x_at) / RFU MBOAT4 (11741988_at) / Fold change /veh MBOAT4 (11741988_at) / RFU 11764193_at / Fold change /veh 11764193_at / RFU TMEM53 (11763286_at) / Fold change /veh TMEM53 (11763286_at) / RFU MAGEB2 (11727129_at) / Fold change /veh MAGEB2 (11727129_at) / RFU TMEM200A (11744735_a_at) / Fold change /veh TMEM200A (11744735_a_at) / RFU CCDC152 (11751479_a_at) / Fold change /veh CCDC152 (11751479_a_at) / RFU FAM211A (11726209_a_at) / Fold change /veh FAM211A (11726209_a_at) / RFU RGS16 (11746705_a_at) / Fold change /veh RGS16 (11746705_a_at) / RFU VCAN (11755009_s_at) / Fold change /veh VCAN (11755009_s_at) / RFU RHOB (11743442_s_at) / Fold change /veh RHOB (11743442_s_at) / RFU RGS16 (11720943_a_at) / Fold change /veh RGS16 (11720943_a_at) / RFU RGS16 (11720944_at) / Fold change /veh RGS16 (11720944_at) / RFU, VPS4B / Fold change vs veh, VPS4B / RFU, CREB1 / Fold change vs veh, CREB1 / RFU, DNAJC13 / Fold change vs veh, DNAJC13 / RFU, GNAQ / Fold change vs veh, GNAQ / RFU, CDK5R1 / Fold change vs veh, CDK5R1 / RFU, ZRANB3 / Fold change vs veh, ZRANB3 / RFU, CUL4A / Fold change vs veh, CUL4A / RFU, CCNY / Fold change vs veh, CCNY / RFU, UFL1 / Fold change vs veh, UFL1 / RFU, COG3 / Fold change vs veh, COG3 / RFU, DIAPH2 / Fold change vs veh, DIAPH2 / RFU, SKA2 / Fold change vs veh, SKA2 / RFU, AFF3 / Fold change vs veh, AFF3 / RFU, LMF1 / Fold change vs veh, LMF1 / RFU, IPO11 / Fold change vs veh, IPO11 / RFU, DFFB / Fold change vs veh, DFFB / RFU, FOXP1 / Fold change vs veh, FOXP1 / RFU, CARD8 / Fold change vs veh, CARD8 / RFU, STRN3 / Fold change vs veh, STRN3 / RFU, ADK / Fold change vs veh, ADK / RFU, RASSF2 / Fold change vs veh, RASSF2 / RFU, WIPF1 / Fold change vs veh, WIPF1 / RFU, LARP1B / Fold change vs veh, LARP1B / RFU, RASA1 / Fold change vs veh, RASA1 / RFU, RB1 / Fold change vs veh, RB1 / RFU, PPFIA1 / Fold change vs veh, PPFIA1 / RFU, MAT2A / Fold change vs veh, MAT2A / RFU, CCT5 / Fold change vs veh, CCT5 / RFU, WDR92 / Fold change vs veh, WDR92 / RFU, CUX1 / Fold change vs veh, CUX1 / RFU, TTC7A / Fold change vs veh, TTC7A / RFU, TMEM135 / Fold change vs veh, TMEM135 / RFU, DEPTOR / Fold change vs veh, DEPTOR / RFU, CPM / Fold change vs veh, CPM / RFU, DNAJB6 / Fold change vs veh, DNAJB6 / RFU, CACNA2D3 / Fold change vs veh, CACNA2D3 / RFU, DTX4 / Fold change vs veh, DTX4 / RFU, TFCP2 / Fold change vs veh, TFCP2 / RFU, GMCL1 /// GMCL1P1 / Fold change vs veh, GMCL1 /// GMCL1P1 / RFU, AEBP2 / Fold change vs veh, AEBP2 / RFU, SNHG1 /// SNORD22 /// SNORD25 /// SNORD26 /// SNORD27 /// SNORD28 /// SNORD29 /// SNORD31 / Fold change vs veh, SNHG1 /// SNORD22 /// SNORD25 /// SNORD26 /// SNORD27 /// SNORD28 /// SNORD29 /// SNORD31 / Fold change (Aza/veh), C12orf56 (ProbeSet 11735607_a_at) / Fold change (ACY-1035/veh), C12orf56 (ProbeSet 11735607_a_at) / Fold change (Aza/veh), FGFR1OP (ProbeSet 11751329_s_at) / Fold change (ACY-1035/veh), FGFR1OP (ProbeSet 11751329_s_at) / Fold change (Aza/veh), VPS36 (ProbeSet 11739960_a_at) / Fold change (ACY-1035/veh), VPS36 (ProbeSet 11739960_a_at) / RFU SYPL1 (11715823_x_at) / Fold change /veh SYPL1 (11715823_x_at) / RFU IGFBP7 (11715501_s_at) / Fold change /veh IGFBP7 (11715501_s_at) / RFU REEP3 (11722064_at) / Fold change /veh REEP3 (11722064_at) / RFU IGLL1 (11728026_x_at) / Fold change /veh IGLL1 (11728026_x_at): dose or concentration left out as unconfirmed
Conditions: MV-4-11 cells, 48 hours

SMILES: Nc1ncn([C@@H]2O[C@H](CO)[C@@H](O)[C@H]2O)c(=O)n1 [azacitidine]
- RFU SRD5A1 (11742802_a_at): 51.32 RFU
